The first assay concerns the target SARS-CoV-2 M^Pro (Severe acute respiratory syndrome coronavirus 2, UniProt P0DTD1). Description: biochemical. It is filed as biochemical.
Details: not given
For `CC(C)C[C@H](NC(=O)OCc1ccccc1)C(=O)NN(CCC(N)=O)C(=O)OCC(F)(F)F` [MPI46, 2,2,2-trifluoroethyl 1-(3-amino-3-oxopropyl)-2-(((benzyloxy)carbonyl)-L-leucyl)hydrazine-1-carboxylate], the IC50 was above 10000 nM.

The compound `CC(C)C[C@H](NC(=O)OCc1ccccc1)C(=O)NN(CCC(N)=O)C(=O)Oc1ccc(F)cc1` [MPI47, 4-fluorophenyl 1-(3-amino-3-oxopropyl)-2-(((benzyloxy)carbonyl)-L-leucyl)hydrazine-1-carboxylate] had a concentration for half-maximal inhibition (IC50) of 1040 nM. `C=CC(=O)N(CCC(N)=O)NC(=O)[C@H](CC(C)C)NC(=O)[C@@H](NC(=O)OCc1ccccc1)[C@@H](C)OC(C)(C)C` [MPI50, benzyl ((2S,3R)-1-(((S)-1-(2-acryloyl-2-(3-amino-3-oxopropyl)hydrazineyl)-4-methyl-1-oxopentan-2-yl)amino)-3-(tert-butoxy)-1-oxobutan-2-yl)carbamate]: the IC50 was 109 nM.

Still in this assay, the particulars now being: 20 nM enzyme (10 nM for MPI3), 10 μM substrate, 37° C., 30 min enzyme-inhibitor incubation.
With `CC(C)[C@H](NC(=O)OCc1ccccc1)C(=O)N[C@@H](Cc1cccs1)C(=O)N[C@H](C=O)C[C@@H]1CCNC1=O` [MPI13, Benzyl ((S)-3-methyl-1-oxo-1-(((S)-1-oxo-1-(((S)-1-oxo-3-((S)-2-oxopyrrolidin-3-yl)propan-2-yl)amino)-3-(thiophen-2-yl)propan-2-yl)amino)butan-2-yl)carbamate], the “Enzymatic IC50” value is listed as “(insoluble)”.

Staying with this assay, now noted: read-out: Enzymatic IC50.
With `C=CC(=O)N(Cc1cc(=O)[nH]c(=O)[nH]1)NC(=O)[C@H](CC(C)C)NC(=O)[C@@H](NC(=O)OCc1ccccc1)C(C)C` [MPI35, benzyl ((S)-1-(((S)-1-(2-acryloyl-2-((2,6-dioxo-1,2,3,6-tetrahydropyrimidin-4-yl)methyl)hydrazineyl)-4-methyl-1-oxopentan-2-yl)amino)-3-methyl-1-oxobutan-2-yl)carbamate], the half-maximal inhibitory concentration (IC50) worked out at 4280 ± 278 nM. Still for that read-out and setting: the result for `CCC(=O)N(CCC(N)=O)NC(=O)[C@H](CC(C)C)NC(=O)OCc1ccccc1` [MPI36, benzyl (S)-(1-(2-(3-amino-3-oxopropyl)-2-propionylhydrazineyl)-4-methyl-1-oxopentan-2-yl)carbamate] reads above 10000 nM; that for `CC(C)C[C@H](NC(=O)OCc1ccccc1)C(=O)NN(CCC(N)=O)C(=O)CCl` [MPI37, benzyl (S)-(1-(2-(3-amino-3-oxopropyl)-2-(2-chloroacetyl)hydrazineyl)-4-methyl-1-oxopentan-2-yl)carbamate], 64 nM. Same read-out and setting: as for `C=CC(=O)N(CCC(N)=O)NC(=O)[C@H](CC(C)C)NC(=O)OCc1ccccc1` [MPI38, benzyl (S)-(1-(2-acryloyl-2-(3-amino-3-oxopropyl)hydrazineyl)-4-methyl-1-oxopentan-2-yl)carbamate], the figure is 640 nM; as for `CC(C)C[C@H](NC(=O)OCc1ccccc1)C(=O)NN(CCC(N)=O)C(=O)[C@@H](C)Cl` [MPI39, benzyl ((S)-1-(2-(3-amino-3-oxopropyl)-2-((R)-2-chloropropanoyl)hydrazineyl)-4-methyl-1-oxopentan-2-yl)carbamate], 5038 ± 13 nM. Take `CC(C)C[C@H](NC(=O)OCc1ccccc1)C(=O)NN(CCC(N)=O)C(=O)[C@H](C)Cl` [MPI40, benzyl ((S)-1-(2-(3-amino-3-oxopropyl)-2-((S)-2-chloropropanoyl)hydrazineyl)-4-methyl-1-oxopentan-2-yl)carbamate]: the half-maximal inhibitory concentration (IC50) was 1620 ± 153 nM.

Turning to `CC(C)C[C@H](NC(=O)OCc1ccccc1)C(=O)NN(CCC(N)=O)C(=O)c1cc([N+](=O)[O-])ccc1F` [MPI41, benzyl (S)-(1-(2-(3-amino-3-oxopropyl)-2-(2-fluoro-5-nitrobenzoyl)hydrazineyl)-4-methyl-1-oxopentan-2-yl)carbamate], the concentration for half-maximal inhibition (IC50) was found to be 39000 nM. On to `C=C(Cc1ccccc1)C(=O)N(CCC(N)=O)NC(=O)[C@H](CC(C)C)NC(=O)OCc1ccccc1` [MPI42, benzyl (S)-(1-(2-(3-amino-3-oxopropyl)-2-(2-benzylacryloyl)hydrazineyl)-4-methyl-1-oxopentan-2-yl)carbamate], for which the concentration for half-maximal inhibition (IC50) was above 10000 nM.

Consider `CC(C)C[C@H](NC(=O)OCc1ccccc1)C(=O)NN(CCC(N)=O)C(=O)/C=C/CN(C)C` [MPI43, benzyl (S,E)-(1-(2-(3-amino-3-oxopropyl)-2-(4-(dimethylamino)but-2-enoyl)hydrazineyl)-4-methyl-1-oxopentan-2-yl)carbamate], for which the IC50 was above 10000 nM. The same measure, in the same setting: as for `CC(C)C[C@H](NC(=O)OCc1ccccc1)C(=O)NN(CCC(N)=O)C(=O)COc1ccc([N+](=O)[O-])cc1` [MPI44, benzyl (S)-(1-(2-(3-amino-3-oxopropyl)-2-(2-(4-nitrophenoxy)acetyl)hydrazineyl)-4-methyl-1-oxopentan-2-yl)carbamate], the figure is above 10000 nM; as for `CC(C)C[C@H](NC(=O)OCc1ccccc1)C(=O)NN(CCC(N)=O)C(=O)COc1ccc(F)cc1` [MPI45, benzyl (S)-(1-(2-(3-amino-3-oxopropyl)-2-(2-(4-fluorophenoxy)acetyl)hydrazineyl)-4-methyl-1-oxopentan-2-yl)carbamate], above 10000 nM. Consider `C=CC(=O)N(CCC(N)=O)NC(=O)[C@H](CC(C)C)NC(=O)[C@@H](NC(=O)OCc1ccccc1)C(C)C` [MPI51, benzyl ((S)-1-(((S)-1-(2-acryloyl-2-(3-amino-3-oxopropyl)hydrazineyl)-4-methyl-1-oxopentan-2-yl)amino)-3-methyl-1-oxobutan-2-yl)carbamate], for which the IC50 is 36 nM.

On to `C=CC(=O)N(CCC(N)=O)NC(=O)[C@H](CC1CCCCC1)NC(=O)[C@@H](NC(=O)OCc1ccccc1)[C@@H](C)OC(C)(C)C` [MPI52, benzyl ((2S,3R)-1-(((S)-1-(2-acryloyl-2-(3-amino-3-oxopropyl)hydrazineyl)-3-cyclohexyl-1-oxopropan-2-yl)amino)-3-(tert-butoxy)-1-oxobutan-2-yl)carbamate], for which the IC50 worked out at 61 ± 1.2 nM.

Turning to `C[C@@H](OC(C)(C)C)[C@H](NC(=O)OCc1ccccc1)C(=O)N[C@@H](CC1CCCCC1)C(=O)NN(CCC(N)=O)C(=O)CCl` [MPI53, benzyl ((2S,3R)-1-(((S)-1-(2-(3-amino-3-oxopropyl)-2-(2-chloroacetyl)hydrazineyl)-3-cyclohexyl-1-oxopropan-2-yl)amino)-3-(tert-butoxy)-1-oxobutan-2-yl)carbamate], the IC50 was 189 nM. On to `CC(C)(C)NC(=O)N[C@H](C(=O)N1C[C@H]2[C@@H]([C@H]1C(=O)N[C@@H](C[C@@H]1CCNC1=O)C(=O)C(=O)NCc1ccccc1)C2(C)C)C(C)(C)C` [MPI63, (1R,2S,5S)-N-((S)-4-(benzylamino)-3,4-dioxo-1-((S)-2-oxopyrrolidin-3-yl)butan-2-yl)-3-((S)-2-(3-(tert-butyl)ureido)-3,3-dimethylbutanoyl)-6,6-dimethyl-3-azabicyclo[3.1.0]hexane-2-carboxamide], for which the IC50 turned out to be 103 ± 1.5 nM. For the compound `CC(C)[C@H](NC(=O)NC(C)(C)C)C(=O)N[C@@H](CC1CC1)C(=O)N[C@H](C=O)C[C@@H]1CCNC1=O` [MPI64, (S)-2-(3-(tert-butyl)ureido)-N-((S)-3-cyclopropyl-1-oxo-1-(((S)-1-oxo-3-((S)-2-oxopyrrolidin-3-yl)propan-2-yl)amino)propan-2-yl)-3-methylbutanamide], the 50% inhibitory concentration (IC50) was determined as 26.1 ± 1.4 nM.

For `C[C@@H](OC(C)(C)C)[C@H](NC(=O)OCc1ccccc1)C(=O)N[C@@H](CC1CCCCC1)C(=O)N[C@@H](C[C@@H]1CCNC1=O)C(O)S(=O)(=O)O` (stereo partly drawn) [MPI65, sodium (5S,8S,11S)-5-((R)-1-(tert-butoxy)ethyl)-8-(cyclohexylmethyl)-12-hydroxy-3,6,9-trioxo-11-(((S)-2-oxopyrrolidin-3-yl)methyl)-1-phenyl-2-oxa-4,7,10-triazadodecane-12-sulfonate], the IC50 came out at 294 ± 15 nM. Turning to `CC(C)C[C@H](NC(=O)[C@@H](NC(=O)OCc1ccccc1)C(C)C)C(=O)N[C@@H](C[C@@H]1CCNC1=O)C(O)C#N` (stereo partly drawn) [MPI66, benzyl ((2S)-1-(((2S)-1-(((2S)-1-cyano-1-hydroxy-3-((S)-2-oxopyrrolidin-3-yl)propan-2-yl)amino)-4-methyl-1-oxopentan-2-yl)amino)-3-methyl-1-oxobutan-2-yl)carbamate], the concentration for half-maximal inhibition (IC50) stood at 18.8 ± 0.8 nM. Turning to `C[C@@H](OC(C)(C)C)[C@H](NC(=O)NC(C)(C)C)C(=O)N1C[C@H]2[C@@H]([C@H]1C(=O)N[C@H](C=O)C[C@@H]1CCNC1=O)C2(C)C` [MPI68, (1R,2S,5S)-3-(O-(tert-butyl)-N-(tert-butylcarbamoyl)-L-threonyl)-6,6-dimethyl-N-((S)-1-oxo-3-((S)-2-oxopyrrolidin-3-yl)propan-2-yl)-3-azabicyclo[3.1.0]hexane-2-carboxamide], the 50% inhibitory concentration (IC50) stood at 97 nM. In the case of `C=CC(=O)N(C[C@@H]1CCC(=O)N1)NC(=O)[C@@H]1[C@@H]2[C@H](CN1C(=O)[C@@H](NC(=O)NC(C)(C)C)[C@@H](C)OC(C)(C)C)C2(C)C` [MPI69, 1-((2S,3R)-1-((1R,2S,5S)-2-(2-acryloyl-2-(((S)-5-oxopyrrolidin-2-yl)methyl)hydrazine-1-carbonyl)-6,6-dimethyl-3-azabicyclo[3.1.0]hexan-3-yl)-3-(tert-butoxy)-1-oxobutan-2-yl)-3-(tert-butyl)urea], the half-maximal inhibitory concentration (IC50) is above 2000 nM.

Regarding `C=CC(=O)N(CCC(N)=O)NC(=O)[C@@H]1[C@@H]2[C@H](CN1C(=O)[C@@H](NC(=O)NC(C)(C)C)[C@@H](C)OC(C)(C)C)C2(C)C` [MPI70, 3-(1-acryloyl-2-((1R,2S,5S)-3-(O-(tert-butyl)-N-(tert-butylcarbamoyl)-L-threonyl)-6,6-dimethyl-3-azabicyclo[3.1.0]hexane-2-carbonyl)hydrazineyl)propanamide], the half-maximal inhibitory concentration (IC50) is 136 ± 17 nM. Regarding `C[C@@H](OC(C)(C)C)[C@H](NC(=O)OCc1ccccc1)C(=O)N[C@@H](CC1CCCCC1)C(=O)N[C@@H](C[C@@H]1CCNC1=O)C(=O)C(N)=O` [MPI86, benzyl ((2S,3R)-1-(((S)-1-(((S)-4-amino-3,4-dioxo-1-((S)-2-oxopyrrolidin-3-yl)butan-2-yl)amino)-3-cyclohexyl-1-oxopropan-2-yl)amino)-3-(tert-butoxy)-1-oxobutan-2-yl)carbamate], the half-inhibitory concentration (IC50) stood at 167 ± 14 nM.

For the origin of these results see patent publication US20230212116A1, “SARS-COV-2 MAIN PROTEASE INHIBITORS” (TEXAS A&M UNIVERSITY SYSTEM, priority 2020, published 2023).
